Reference: patent publication US9018208B2, “Heterocycles as potassium channel modulators” (Icagen Inc., priority 2007, dated 2015)
Like-named read-outs stand apart in the source and are kept apart here.

Columns and labels:
[1] = system: electroshock seizure, Male Wistar rats; assay: In vivo rat assay for anti-convulsant activity (rat MES, electroshock seizure); details: for Rat MES activity: single dose screening, oral, typically 10 mg/kg, animals protected from hind limb extension; for ED50: Rattus norvegicus, po, rat MES dose-response
Method: Male Wistar rats were housed 4 per cage on a regular light/dark cycle (lights on 0600-1800) for one week prior to anti-convulsant testing. The apparatus used to induce electroshock seizure was obtained from Walhquist Instrument Co., Salt Lake City, Utah. The shock level was set at 150 mA and the duration at 0.2 seconds. A drop of 1% proparacaine solution was placed in each eye of a rat, the electrodes were placed over the eyes, and the shock was administered. Latency to hind limb extension was measured to the nearest 0.1 second.
The KCNQ opener was homogenized in either 0.5% carboxymethylcellulose in water or 0.5% methylcellulose in water) and administered orally through a steel 18-gauge rat gavage tube in a volume of 2 mL/kg of body weight. In the single dose screening assay, latency to seizure for the vehicle group and the KCNQ opener group were compared using t-test. Typically a dose of 10 mg/kg of the opener is used. However, openers can be run n a dose-response experiment where doses of 1, 3, 10 and 30 mg/Kg are used.
In the single dose screening assay, latency to seizure for the vehicle and the 10 mg/kg groups were compared using t-test. Latencies to seizure in the dose response studies were submitted to analysis of variance and all dose groups were compared to vehicle using Dunnett's method (JMP© ver 5.1, SAS). In all cases an effect was considered significant if p≦0.05.

[2] = system: SH-SY5Y M-currents (KCNQ2, KCNQ3 and KCNQ5); assay: SH-SY5Y native cell line FLIPR assay (voltage-sensitive dye DiBAC); type: cell-based, mouse neuroblastoma, rat glioma hybrid cell line; details: SH-SY5Y native cell line, read-out: SH-SY5Y EC50
Procedure, shortened: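 Response is peak DiBAC fluorescence change, normalised to the maximum from a positive control agent, sampled every 30 s over 25 min. Before compound addition, SH-SY5Y cells differentiated with PGE1 plus isomethylbutylxanthine were dye-loaded for 1 h in EBSS with […] DiBAC.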

EC50 ([2]; FLIPR assay, Table 1)	EC50 ([2]; FLIPR assay, Table 2)	EC50 ([2]; FLIPR assay (Table 3))	EC50 ([2]; FLIPR assay (Table 6))	Compound	Rat MES activity [1]	ED50 [1]
	< 500 nM			CC(C)(C)CC(=O)Nc1nc2ccc(Cl)nn2c1-c1ccc(C(F)(F)F)cc1 [Compound 271, N-(6-chloro-3-(4-(trifluoromethyl)phenyl)imidazo[1,2-b]pyridazin-2-yl)-3,3-dimethylbutanamide]	++ (++ 4-6 animals protected)	
	< 500 nM			Cc1ccc2nc(NC(=O)CC(C)(C)C)c(-c3cccc(C(F)(F)F)c3)n2n1 [Compound 308, 3,3-dimethyl-N-(6-methyl-3-(3-(trifluoromethyl)phenyl)imidazo[1,2-b]pyridazin-2-yl)butan amide]	+++ (+++ 7-8 animals protected)	1.6 mg/kg
	< 500 nM			Cc1ccc2nc(NC(=O)CC(C)C(F)(F)F)c(-c3cccc(C(F)(F)F)c3)n2n1 (stereo not shown) [Compound 316, 4,4,4-trifluoro-3-methyl-N-(6-methyl-3-(3-(trifluoromethyl)phenyl)imidazo[1,2-b]pyridazin-2-yl)butanamide]	++ (++ 4-6 animals protected)	
		< 500 nM		CC(C)(C)CC(=O)Nc1nc2ccc(F)cn2c1-c1ccc(C(F)(F)F)cn1 [Compound 353, N-(6-fluoro-3-(5-(trifluoromethyl)pyridin-2-yl)imidazo[1,2-a]pyridin-2-yl)-3,3-dimethylbutanamide]	+++ (+++ 7-8 animals protected)	
		< 500 nM		CC(C)(C)CC(=O)Nc1nc2ccc(F)cn2c1-c1nc2ccccc2s1 [Compound 360, N-(3-(benzo[d]thiazol-2-yl)-6-fluoroimidazo[1,2-a]pyridin-2-yl)-3,3-dimethylbutanamide]	+ (+ 2-3 animals protected)	
		< 500 nM		CC(C)(C)CC(=O)Nc1nc2ccc(F)cn2c1-c1ccc(Cl)cn1 [Compound 363, N-(3-(5-chloropyridin-2-yl)-6-fluoroimidazo[1,2-a]pyridin-2-yl)-3,3-dimethylbutanamide]	++ (++ 4-6 animals protected)	
		500 to 3000 nM		CC(C)(C)CC(=O)Nc1nc2ccc(F)cn2c1-c1nccs1 [Compound 371, N-(6-fluoro-3-(thiazol-2-yl)imidazo[1,2-a]pyridin-2-yl)-3,3-dimethyl butanamide]	++ (++ 4-6 animals protected)	3.6 mg/kg
			< 500 nM	CC(C)(C(=O)Nc1nc2ccc(C(F)(F)F)cn2c1C1CCC1)C(F)(F)F [Compound 428, N-(3-cyclobutyl-6-(trifluoromethyl)imidazo[1,2-a]pyridin-2-yl)-3,3,3-trifluoro-2,2-dimethylpropanamide]	+++ (+++ 7-8 animals protected)	1.1 mg/kg
			500 to 3000 nM	CC(C)(C(=O)Nc1nc2ccc(C(F)(F)F)cn2c1C1CC1)C(F)(F)F [Compound 429, N-(3-cyclopropyl-6-(trifluoromethyl)imidazo[1,2-a]pyridin-2-yl)-3,3,3-trifluoro-2,2-dimethylpropanamide]	+++ (+++ 7-8 animals protected)	3.4 mg/kg
			500 to 3000 nM	O=C(Nc1nc2ccc(C(F)(F)F)cn2c1C1CCCC1)c1ccc(F)c(F)c1 [Compound 430, N-(3-cyclopentyl-6-(trifluoromethyl)imidazo[1,2-a]pyridin-2-yl)-3,4-difluorobenzamide]	++ (++ 4-6 animals protected)	2.3 mg/kg
	< 500 nM			N-(6-fluoro-3-(3-(trifluoromethoxy)phenyl)imidazo yl)cycloheptanecarboxamide [Compound 293]		
	< 500 nM			N-(6-fluoro-3-(3-(trifluoromethyl)phenyl)imidazo yl)cycloheptanecarboxamide [Compound 294]		

The next lines start with the compound.

Compound	EC50 ([2]; FLIPR assay, Table 1)	EC50 ([2]; FLIPR assay, Table 2)	EC50 ([2]; FLIPR assay (Table 3))	EC50 ([2]; FLIPR assay (Table 6))	Rat MES activity [1]	ED50 [1]
CC(C)(C)Cc1c(NC(=O)Cc2ccccc2)nc2ccc(C(F)(F)F)cn12 [Compound 20, N-(3-neopentyl-6-(trifluoromethyl)imidazo[1,2-a]pyridin-2-yl)-2-phenylacetamide]	< 500 nM				+ (+ 2-3 animals protected)	
CC(CC(=O)Nc1nc2ccc(C(F)(F)F)cn2c1CC(C)(C)C)C(F)(F)F (stereo not shown) [Compound 23, 4,4,4-trifluoro-3-methyl-N-(3-neopentyl-6-(trifluoromethyl)imidazoyl)butanamide]	< 500 nM				+ (+ 2-3 animals protected)	
CC(C)(C)CCC(=O)Nc1nc2ccc(C(F)(F)F)cn2c1CC(C)(C)C [Compound 24, 4,4-dimethyl-N-(3-neopentyl-6-(trifluoromethyl)imidazo[1,2-a]pyridin-2-yl)pentanamide]	< 500 nM				+ (+ 2-3 animals protected)	
CC(C)(C)CC(=O)Nc1nc2ccc(C(F)(F)F)cn2c1CC1CCCCC1 [Compound 32, N-(3-(cyclohexylmethyl)-6-(trifluoromethyl)imidazo[1,2-a]pyridin-2-yl)-3,3-dimethylbutanamide]	< 500 nM				+ (+ 2-3 animals protected)	
O=C(Cc1ccccc1)Nc1nc2ccc(C(F)(F)F)cn2c1C1CCCCC1 [Compound 38, N-(3-cyclohexyl-6-(trifluoromethyl)imidazo[1,2-a]pyridin-2-yl)-2-phenylacetamide]	< 500 nM				++ (++ 4-6 animals protected)	
CC(C)(C)Cc1c(NC(=O)C2CCCC2)nc2ccc(C(F)(F)F)cn12 [Compound 51, N-(3-neopentyl-6-(trifluoromethyl)imidazo[1,2-a]pyridin-2-yl)cyclopentanecarboxamide]	< 500 nM				++ (++ 4-6 animals protected)	
Cc1ccc2nc(NC(=O)CC(C)C(F)(F)F)c(CC(C)(C)C)n2n1 (stereo not shown) [Compound 68, 4,4,4-trifluoro-3-methyl-N-(6-methyl-3-neopentylimidazo[1,2-b]pyridazin-2-yl)butanamide]	< 500 nM				+++ (+++ 7-8 animals protected)	
C[C@H](CC(=O)Nc1nc2ccc(C(F)(F)F)cn2c1C1CC1)C(F)(F)F [Compound 89, (R)—N-(3-cyclopropyl-6-(trifluoromethyl)imidazo[1,2-a]pyridin-2-yl)-4,4,4-trifluoro-3-methylbutanamide]	500 to 3000 nM				+++ (+++ 7-8 animals protected)	5.8 mg/kg
CC(C)(C)CC(=O)Nc1nc2ccc(F)cn2c1-c1ccc(C(F)(F)F)cc1 [Compound 128, N-(6-fluoro-3-(4-(trifluoromethyl)phenyl)imidazo[1,2-a]pyridin-2-yl)-3,3-dimethylbutanamide]		< 500 nM			+++ (+++ 7-8 animals protected)	
CC1(CC(=O)Nc2nc3ccc(F)cn3c2-c2ccc(C(F)(F)F)cc2)CCCC1 [Compound 180, N-(6-fluoro-3-(4-(trifluoromethyl)phenyl)imidazo[1,2-a]pyridin-2-yl)-2-(1-methylcyclopentyl)acetamide]		< 500 nM			++ (++ 4-6 animals protected)	
CC(C)(C)CC(=O)Nc1nc2ccc(F)cn2c1-c1cc(F)cc(C(F)(F)F)c1 [Compound 198, N-(6-fluoro-3-(3-fluoro-5-(trifluoromethyl)phenyl)imidazo[1,2-a]pyridin-2-yl)-3,3-dimethylbutanamide]		< 500 nM			+++ (+++ 7-8 animals protected)	
CC(C)(C)CC(=O)Nc1nc2ccccn2c1-c1ccc(OC(F)(F)F)cc1 [Compound 225, 3,3-dimethyl-N-(3-(4-(trifluoromethoxy)phenyl)imidazo[1,2-a]pyridin-2-yl)butanamide]		< 500 nM			++ (++ 4-6 animals protected)	
